Several values for one entry are separate records, joined by “and”; a condition that tells them apart may be missing. Equal entries are not always repeated. Entries after “also recorded” stand apart in the source; their conditions may differ. Structures can show the parent of a compound that is named as a salt.
What was measured:
normal colon tissue = test: Real-time PCR with mouse-specific primers on normal colon of CPT-11 treated mice; type: in vivo; details: normal colon of CPT-11 treated vs control mice; data not shown
Protocol: Real-Time PCR (TaqMan®)'The source of RNA used for RT-PCR analysis was the same as that used for the preparation of probes for oligonucleotide array analysis. Quantitative Reverse Transcriptase-PCR (RT-PCR) was performed using TaqMan® assay reagents from Perkin-Elmer, Applied Biosystems, 50 μl RT-PCR reactions consisted of 5 μl 10× TaqMan Buffer A, 300 μM of each dNTP, 5 mM MgCl2, 10 unites of RNase inhibitor, 12.5 units of MuLV Reverse Transcriptase, 1.25 units of AmpliTaq Gold DNA Polymerase, 200 nM probe, 500 nM primers and 100 ng RNA. Reaction conditions consisted of reverse transcription at 48° C. for 10 minutes, denaturation at 95° C. for 10 minutes, and 40 thermal cycles of 95° C. for 25 seconds, and 65° C. for 1 min. Reaction products were analyzed on 4-agarose gels (Invitrogen). Fold-induction for each gene of interest was determined using the ΔΔCt method and the result is presented relative to both GAPDH and actin in each figure. The following specific probes and primer sets were used for MFGE8 (Acc#U58516): forward primer: […] NO: 1), reverse primer: […] NO: 2), and probe: […] NO: 3); GPC1 (Acc#X54232): forward primer: […] NO: 4), reverse primer: […] NO: 5), and probe: […] […] Real-time PCR with primers specific for corresponding mouse transcripts was performed and with the exceptions of SPRR3 and Aquaporin-3, all of the mouse homologs were readily detected in RNA from mouse colon. […]

E48/Ly-6D = E48/Ly-6D surface expression on Colo205 cells after CPT-11 (FACS, immunofluorescence); type: cell-based, human
Protocol: For flow cytometry, cells were grown to 90% confluence and removed from plates using 2 mM EDTA in PBS. Cells were washed and resuspended in FACS buffer (PBS with 1% BSA) and incubated for 60 min with anti-LY6D/[…] monoclonal antibody 15A5 or 17H7 or anti-gd antibody (Genentech, Inc.) followed by 60 min with anti-mouse secondary antibody conjugated to PE. Analysis was performed on FACS scan.

DLD-1 tumors = test: Real-time PCR (TaqMan) of RNA from DLD-1 xenograft tumors, parallel to Colo205; type: in vivo, human
Protocol: (§1) Real-Time PCR (TaqMan®)'The source of RNA used for RT-PCR analysis was the same as that used for the preparation of probes for oligonucleotide array analysis. Quantitative Reverse Transcriptase-PCR (RT-PCR) was performed using TaqMan® assay reagents from Perkin-Elmer, Applied Biosystems, 50 μl RT-PCR reactions consisted of 5 μl 10× TaqMan Buffer A, 300 μM of each dNTP, 5 mM MgCl2, 10 unites of RNase inhibitor, 12.5 units of MuLV Reverse Transcriptase, 1.25 units of AmpliTaq Gold DNA Polymerase, 200 nM probe, 500 nM primers and 100 ng RNA. Reaction conditions consisted of reverse transcription at 48° C. for 10 minutes, denaturation at 95° C. for 10 minutes, and 40 thermal cycles of 95° C. for 25 seconds, and 65° C. for 1 min. Reaction products were analyzed on 4-agarose gels (Invitrogen). Fold-induction for each gene of interest was determined using the ΔΔCt method and the result is presented relative to both GAPDH and actin in each figure. The following specific probes and primer sets were used for MFGE8 (Acc#U58516): forward primer: […] (SEQ ID NO: 1), reverse primer: […] (SEQ ID NO: 2), and probe: […] (SEQ ID NO: 3); GPC1 (Acc#X54232): forward primer: […] (SEQ ID NO: 4), reverse primer: […] (SEQ ID NO: 5), and probe: […] (SEQ ID NO:6); AQP3 (Acc# N74607): forward primer: […] (SEQ ID NO: 7), reverse primer: […] (SEQ ID NO: 8), and probe, […] (SEQ ID NO: 9); CDH17 (Acc#83228): forward primer: […] (SEQ ID NO: 10), reverse primer: […] (SEQ ID NO: 11), and probe: […] (SEQ ID NO: 12); Ly6D/E48 (Acc#Y12642): forward primer: […] (SEQ ID NO: 13); reverse primer: […] (SEQ ID NO: 14); and probe: […] (SEQ ID NO: 15); and Ly6E/SCA-2 (Acc# U66711): forward primer: […] (SEQ ID NO: 16); reverse primer: […] (SEQ ID NO: 17); and probe: […] (SEQ ID NO: 18).

[1] = test system: DLD-1 colorectal tumor xenografts; test: Growth, treatment and resection of DLD-1 tumor xenografts in nude mice; type: in vivo, human; details: DLD-1 xenografts; CPT-11-treated; at time of resection; monohydrochloride, trihydrate
Text: (§2) Growth and treatment of human tumor xenografts—Female nude mice (Charles River Laboratories, Hollister Calif.) were maintained in accordance with the guide for the Care and Use of Laboratory Animals, Colo205 human colorectal cancer cells were harvested, resuspended in HBSS, and injected s.c. into flanks (5×10^6 cells/flank) of 6-8 week old mice. […] Twenty-four hours following the final dose of CPT-11 or saline, tumors were resected from the animals. […]. Half of each tumor was frozen immediately in liquid nitrogen for subsequent extraction of RNA and the other half was fixed in 10% neutral buffer formalin overnight and then transferred 24 hours later into 70% ethanol for sectioning, microscopic analysis and analysis by in situ hybridization. Tumor xenografts of the DLD-1 colorectal cell line were treated and prepared in essentially the same manner. The masses of the DLD-1 colorectal tumor xenografts at time of resection were 0.24, 0.10 and 0.21 for saline controls and 0.21, 0.1 and 0.12 for CPT-11-treated tumors.

LY6D/E48 transcript = test: LY6D/E48 mRNA induction in cultured cell lines by CPT-11 (real-time PCR); type: cell-based, human; details: for LY6D/E48 transcript: monohydrochloride, trihydrate
Text: (§3) Cell lines-Colo205, HCT116, HT29 (ATCC Nos. CCL222, CCL221, CCL247, HTB38, respectively) are human colorectal adenocarcinoma cell lines. 293 is a human immortalized embryonic kidney cell line (ATCC CRL573). PC-3 is a human prostate adenocarcinoma cell line (ATCC CRL1435) and HT1080 is a human fibrosarcoma cell line (ATCC CCL-121). PC-3 stable cell lines were generated by transfection (Effectene, Qiagen) with a CMV-driven vector encoding either an NH2-terminal gD epitope-tagged form of LY6D/E48 or an empty vector and selected in 400 μg/ml G418 (Geneticin, Life Technologies, Inc.). Growth conditions were according to American Type Culture Collection (ATCC, Manassas, Va.) guidelines. For all cell lines, CPT11 treatments were done in 10 cm dishes for the indicated timepoints. Cells were harvested and RNA was prepared using RNeasy kit (Qiagen, Hilden, Germany). TaqMan® real-time quantitative PCR analysis was performed as described below.
as §1

[2] = test system: Colo205 human colorectal cancer cells; test: Growth, treatment and resection of Colo205 tumor xenografts in nude mice (mass, H&E); type: in vivo
Text: as §2

Colo205 tumors = test: Real-time PCR (TaqMan) of RNA from Colo205 xenograft tumors; type: in vivo, human
Protocol: Real-Time PCR (TaqMan®)'The source of RNA used for RT-PCR analysis was the same as that used for the preparation of probes for oligonucleotide array analysis. Quantitative Reverse Transcriptase-PCR (RT-PCR) was performed using TaqMan® assay reagents from Perkin-Elmer, Applied Biosystems, 50 μl RT-PCR reactions consisted of 5 μl 10× TaqMan Buffer A, 300 μM of each dNTP, 5 mM MgCl2, 10 unites of RNase inhibitor, 12.5 units of MuLV Reverse Transcriptase, 1.25 units of AmpliTaq Gold DNA Polymerase, 200 nM probe, 500 nM primers and 100 ng RNA. Reaction conditions consisted of reverse transcription at 48° C. for 10 minutes, denaturation at 95° C. for 10 minutes, and 40 thermal cycles of 95° C. for 25 seconds, and 65° C. for 1 min. Reaction products were analyzed on 4-agarose gels (Invitrogen). Fold-induction for each gene of interest was determined using the ΔΔCt method and the result is presented relative to both GAPDH and actin in each figure. The following specific probes and primer sets were used for MFGE8 (Acc#U58516): forward primer: […] (SEQ ID NO: 1), reverse primer: […] (SEQ ID NO: 2), and probe: […] (SEQ ID NO: 3); GPC1 (Acc#X54232): forward primer: […] (SEQ ID NO: 4), reverse primer: […] (SEQ ID NO: 5), and probe: […] (SEQ ID NO:6); AQP3 (Acc# N74607): forward primer: […] (SEQ ID NO: 7), reverse primer: […] (SEQ ID NO: 8), and probe, […] […]

mouse colon = test: Oligonucleotide array analysis (Affymetrix Mu74Av2) of normal colon/intestine of tumor-bearing mice treated with CPT-11 or saline; type: in vivo
[3] = test system: Colo205 human tumor xenografts; test: In vivo efficacy study, Colo205 xenografts in nude mice; details: CPT-11 alone, 80 mg/kg IP day 0, 4 & 8; regrowth at rapid rate after last administration
Colo205 and DLD-1 cells = Colo205 and DLD-1 cells treated in vitro with CPT-11, expression of genes of Table I; type: cell-based, human; details: data not shown
Text: as §3, with “LY6D/[…]” for “LY6D/E48”

CCc1c2c(nc3ccc(OC(=O)N4CCC(N5CCCCC5)CC4)cc13)-c1cc3c(c(=O)n1C2)COC(=O)[C@]3(O)CC [CPT-11, (S)-[1,4′-bipiperidine]-1′-carboxylic acid, 4,11-diethyl-3,4,12,14-tetrahydro-4-hydroxy-3,14-dioxo-1H-pyrano[3′,4′:6,7]indolizino(1,2-b)quinolin-9-yl ester, monohydrochloride, trihydrate]
expression of mouse homologs of tumor-induced genes (normal colon tissue): no difference in expression of these genes was detected | anti-LY6D/E48 signal intensity by fluorescence activated cell sorting (E48/Ly-6D; Colo205 cells, increasing concentrations of CPT-11 in vitro, 2 days): increased in a dose dependent manner | signal intensity and percentage of reactive cells by immunofluorescent microscopy (E48/Ly-6D; intact Colo205 cells, increasing CPT-11): increased with drug dosage | Activation of Keratin23 and E48 (DLD-1 tumors; Colo205 and DLD-1 tumors): occurred in both tumor types | Neuromedin U, Annexin VIII, Transglutaminase, Aquaporin-3 and Maspin (DLD-1 tumors; Colo205 and DLD-1 tumors): all induced by SPT-11 and expressed at comparable levels in the Colo205 and DLD-1 tumors | Galectin-7 mRNA (DLD-1 tumors; DLD-1 tumors): undetectable in both treated or control DLD-1 tumors | Periplekin and Antileukoproteinase induction (DLD-1 tumors; DLD-1 tumors compared with Colo205 tumors): induced by SPT-11 to a degree less than that observed for the Colo205 tumors | genes induced by CPT-11, Colo205 and DLD-1 tumors in parallel (DLD-1 tumors; real-time PCR, FIG. 2): most of the genes were induced by CPT-11 treatment of both tumor types | mass of resected tumor (individual tumors) [1]: 0.21 and 0.1 and 0.12 | LY6D/E48 mRNA (LY6D/E48 transcript; colorectal cancer cell line DLD-1): overexpressed LY6D/E48 MRNA in response to CPT-11 | LY6D/E48 mRNA (LY6D/E48 transcript; colorectal cancer cell line HCT116): overexpressed LY6D/E48 MRNA in response to CPT-11 | LY6D/E48 mRNA (LY6D/E48 transcript; colorectal cancer cell line HT29): overexpressed LY6D/E48 MRNA in response to CPT-11 | LY6D/E48 transcript level (LY6D/E48 transcript; cultured Colo205 cells, 10 μM CPT-11, 24 and 48 hours): elevated within 24 hours post-treatment with a further enhancement by 48 hours | LY6D/E48 mRNA (LY6D/E48 transcript; fibrosarcoma cell line HT1080): overexpressed LY6D/E48 MRNA in response to CPT-11 | LY6D/E48 transcript (LY6D/E48 transcript; human embryonic kidney cell line 293, 10 μM CPT-11): could not be detected in the absence or presence of CPT-11; also recorded: not detected | LY6D/E48 transcript (LY6D/E48 transcript; human prostate cancer PC3 cell line, 10 μM CPT-11): could not be detected in the absence or presence of CPT-11; also recorded: not detected | average tumor mass, drug treated vs control group ([2]; 24 hours after third injection): did not differ significantly | average mass of the tumors ([2]; 24 hours after third injection, control and drug treated groups): approximately 300 mg | mass of resected tumor (individual tumors) ([2]; CPT-11 80 mg/kg IP three times at 4 day intervals, 24 hours after final dose, monohydrochloride, trihydrate, 80 mg/kg): 0.23 grams and 0.18 grams and 0.50 grams | Galectin-7 mRNA (Colo205 tumors; Colo205 tumors): present and induced | transcripts MFGE8, GPC1, AQP3, CDH17, LY6D, LY6E, identified and confirmed by real-time PCR (Colo205 tumors; three CPT-11 treated Colo205 tumors vs saline controls): significant upregulation in all three CPT-11 treated tumors relative to controls | tumor-induced transcripts in normal mouse intestine (mouse colon; apart from Metallothionein (MT1G)): none of the transcripts that were induced in the tumors by CPT-11 were induced in the normal mouse intestine | cryptidin genes (mouse colon; normal colon, three animals treated with CPT-11): activated in two of the three animals treated with CPT-11 | gene activation in colon, Mu74Av2 array (mouse colon; unrelated to most genes induced in the xenografts): activation of a small number of genes in the colon | tumor growth [3]: transiently reduced the rate of tumor growth | expression of genes listed in Table I (Colo205 and DLD-1 cells): upregulation of some of the genes listed in Table I was observed
